Experiment [1] in a line: Cu^+ transport into liposomes with encapsulated BCS. The note with it: POPC/cholesterol 7:3 LUVs, calix[4]arene to lipid 1:1000, 50 μM copper gradient, F/F0 after 600 s. The procedure:
The ability of the examples of calix[4]arenes of the invention and the comparative examples to be delivered into a lipidic bilayer membrane of a liposome from a solution and their capacity to then act as a transporter of Cu^+ was evaluated using bathocuproine disulphonate (hereafter abbreviated “BCS”) encapsulated in large unilamellar vesicles (LUVs, also referred to as liposomes) composed of 1-palmitoyl-2-oleoyl-sn-glycero-3-phosphocholine and cholesterol in a 7:3 ratio.
BCS is a fluorescent water soluble phenantroline derivative that can be used as fluorescent dye for the sensing of Cu^+ through the formation of a non-fluorescent 2:1 complex.
Stock solution of lipids were prepared using deacidified CHCl3 and stored in a freezer. CHCl3 was deacidified by passing through activated basic alumina. The lipids used to prepare the liposomes were 2-oleoyl-1-palmitoyl-sn-glycero-3-phosphocholine (POPC), (purity ≥99%) and cholesterol (purity of 95%). 50 mM sodium phosphate buffer were prepared with Millipore water at pH 7 (±0.1) by mixing the solution of the mono- and the di-protonated phosphate salts. The solution of the dye (BCS) was prepared at 0.5 mM concentration in phosphate buffer.
The lipids solutions were mixed in different ratios in a 5 mL round bottom flask. The POPC/cholesterol molar ratio was 7:3 in all experiments. The total amount of lipids per batch varied depending on the amount of liposomes solution required for the experiment. After mixing the lipid solutions in a round bottom flask, the chloroform was evaporated under a gentle air flow and the resulting lipid film was dried at high vacuum for at least an hour. 500 μL of the BCS solution in phosphate buffer and a magnetic stir bar were added to the flask. The flask was then sonicated for 30 seconds and placed under magnetic agitation for at least an hour. The solution was frozen with liquid nitrogen and heated back to room temperature with warm water ten times to form large unilamellar vesicles (LUVs). The liposome solution was extruded 29 times, using an extrusion kit equipped with a membrane with 200 nm pores. Subsequently, the solution was eluted with the buffer solution used for the experiment through a size exclusion column (Sephadex G-25) to remove the external BCS and then diluted with phosphate buffer to obtain a concentration of 0.4 mM in lipids.
Solutions of the calix[4]arenes were prepared at a concentration of 0.24 mM in DMSO and 5 μL of the solution was added 2 minutes before each transport measurement.
Alternatively, calix[4]arenes were pre-incorporated by combining the calix[4]arene (dissolved in chloroform) with the lipids prior to the evaporation of the chloroform to obtain a lipid film. The concentrations and volumes were chosen to obtain a calix[4]arene to lipid of 1:1000.
Fluorescence measurements were performed with a Horiba FluoroMax 4 spectrometer using a 4-faced quartz cuvette (10 mm×10 mm). For the Cu^+ transport assay, the excitation was set at 278 nm and emission was recorded at 393 nm. These values correspond to the excitation and emission maxima of BCS encapsulated inside LUVs.
The Cu^+ solutions added to the liposomes were obtained by dissolving Cu(MeCN)4BF4 in MeCN at 15.25 mM concentration. The copper solution was then diluted by a factor 5 in a phosphate buffer during the first 30 seconds of the experiment to reach a copper concentration of 3.05 mM. 50 μL of the diluted copper solution was added to 3 mL of liposomes, resulting in a copper gradient of 50 μM. The fluorescence level was monitored for 600 seconds after the addition of the copper solution.
For each run the initial plateau and the initial vertical drop (due to the binding of the exterior dye with Cu^+ and the dilution, 1-4 seconds after the addition) were removed. Then the signal was normalised by dividing the fluorescence values (F) by the value at t=0 second (F0). […]

In experiment [2] the test system is A549 human lung cancer cell line. The experiment can be described thus: Inhibition of A549 cell proliferation (cell count). The note with it: 2 μM, until 72 hours. In kind it is cell-based. The method, then: The inhibition of a A549 human lung cancer cell line proliferation by the calix[4]arene of the formula (2) was determined by exposure of said A549 human lung cancer cell line to a concentration of 2 μM of the calix[4]arene of the formula (2) until 72 hours. The absolute number of cells were counted in the treated and untreated conditions before treatment (N0) and after 72 hours (Nt).
The FIG. 1 is a graph showing: • the profile of the proliferation index Nt/N0 of the A549 cells after exposure with the calix[4]arene of the formula (2) with respect to the time (i.e. the curve entitled “calix[4]arene (2)”), • the profile of the proliferation index Nt/N0 of the A549 cells without any exposure with the calix[4]arene of the formula (2) with respect to the time (i.e. the curve entitled “untreated”).
“Nt” is number of cells at time “t” and “No” is number of cells before treatment.

With `CCCOc1c2cccc1Cc1cccc(c1OCc1nccn1C)Cc1cccc(c1OCCC)Cc1cccc(c1OCc1nccn1C)C2` [(2)], the “Cu^+ transport” value in experiment [1] is “Yes (means that a significant decrease of the fluorescence of encapsulated BCS was observed upon addition of Cu^+ to the liposomes (F/F0<0.65 after 600 s))”. Moreover, the “proliferation index Nt/N0 (FIG. 1)” value in experiment [2] was “clearly inhibits the proliferation”.

The record behind these values is patent US20260015339A1, “CALIX[4]ARENES WITH HIGH ANTICANCER ACTIVITY” (UNIVERSITE GRENOBLE ALPES, priority 2023, published 2026).
